Data published in EP4772186A1, “USE AND COMPOSITION OF POSTBIOTIC OF LACTOBACILLUS PARACASEI ET-22” (Inner Mongolia Yili Industrial Group Co., Ltd., priority 2023, dated 2025).

How the values were obtained:
[1] = test system: volatile organic compounds (VOCs); experiment: SPME-GC-MS of volatile organic compounds (VOCs) in saliva fermentation; format: cell-based, halitosis subjects (saliva)
Experimental: (§1) Fresh saliva was collected from 10 halitosis subjects (Halimeter index >120). Subjects were required not to consume any food or drink for 2 hours before donating saliva. Saliva was directly spat into a saliva collection tube, 5 ml per person, and mixed. The mixture was centrifuged at 4500 rpm for 10 minutes, and the supernatant was collected, aliquoted, and stored at -80°C for subsequent experimental studies.
(§2) Lysate group: In a headspace vial, 100 µl of saliva was added first, followed by separate addition of ET-22 viable bacteria (1.0×10^9 CFU/ml), ET-22 heat-inactivated bacterial cells (obtained by inactivating viable bacteria at 1.0×10^9 CFU/ml), and lysate (obtained by inactivating and then filtering viable bacteria at 1.0×10^9 CFU/ml), each at 100µl. Then, 800 µl of SHI medium was added. After filling with nitrogen, anaerobic cultivation was performed for 10 hours for loading on machine, and then SPME-GC-MS was used to test the change in content of volatile organic compound.
as §2, with “NAD group:” for “Lysate group:”, “by the” for “by”, “by heat-inactivating” for “by inactivating”, “and NAD (100 µg/ml),” for “and lysate (obtained by inactivating and then filtering viable bacteria at 1.0×10^9 CFU/ml),”, “machine,” for “machine, and”, “the changes” for “the change”
2-hydroxy-3-phenylpropionic acid group: In a headspace vial, 100 µl of saliva was added first, followed by the separate addition of ET-22 viable bacteria (1.0×10^9 CFU/ml), ET-22 heat-inactivated bacterial cells (obtained by heat-inactivating viable bacteria at 1.0×10^9 CFU/ml), and 2-hydroxy-3-phenylpropionic acid (100 µg/ml), each at 100µl. […]
Helium was used as a carrier gas, with a rate remaining at 1.1 mL min-1. […] The flavor characteristic of each compound was determined based on data from the Good Scents Company Information System (http://www.thegoodscentscompany.com).

[2] = test system: indole, hexanoic acid, and propanoic acid; experiment: SPME-GC-MS of characteristic flavor compounds; format: cell-based, halitosis subjects (saliva)
Experimental: as §1, §2
as §2, with “NAD group:” for “Lysate group:”, “by the” for “by”, “by heat-inactivating” for “by inactivating”, “and NAD (100 µg/ml),” for “and lysate (obtained by inactivating and then filtering viable bacteria at 1.0×10^9 CFU/ml),”, “machine,” for “machine, and”, “the changes” for “the change”
as §2, with “2-hydroxy-3-phenylpropionic acid group:” for “Lysate group:”, “by the” for “by”, “by heat-inactivating” for “by inactivating”, “and 2-hydroxy-3-phenylpropionic acid (100 µg/ml),” for “and lysate (obtained by inactivating and then filtering viable bacteria at 1.0×10^9 CFU/ml),”, “the changes” for “the change”
as §2, with “GP(HYP)GAG group:” for “Lysate group:”, “by the” for “by”, “by heat-inactivating” for “by inactivating”, “and GP(HYP)GAG (100 µg/ml),” for “and lysate (obtained by inactivating and then filtering viable bacteria at 1.0×10^9 CFU/ml),”, “the changes” for “the change”
Peptidoglycan group: In a headspace vial, 100 µl of saliva was added first, followed by separate addition of ET-22 viable bacteria (1.0×10^9 CFU/ml), ET-22 heat-inactivated bacterial cells (same as Example 1), and peptidoglycan (same as Example 1), each at 100µl. Then, 800 µl of SHI medium was added. After filling with nitrogen, anaerobic cultivation was performed for 10 hours for loading on machine, and then SPME-GC-MS was used to test the changes in content of volatile organic compound.
Helium was used as a carrier gas, with a rate remaining at 1.1 mL min-1. The injector temperature was set at 250°C. Oven temperature program was as follows: holding at 40°C for 1 min, then ramping to 120°C at a rate of 8°C/min, followed by increasing to 230°C at a rate of 5°C/min and holding for 10 minutes. The mass spectrometer was operated in electron ionization (EI) mode, with ion source temperature of 230°C, interface temperature of 200°C, and M/Z scan range of 30-400. To identify specific compounds, their mass spectra were compared with those of true compounds given in the NIST 17 database (V.05). The minimum matching quality for forward and reverse matches was 75/100. The flavor characteristic of each compound was determined based on data from the Good Scents Company Information System (http://www.thegoodscentscompany.com). […]

[3] = pure components 100 µg/ml, others from 1.0×10^9 CFU/ml, 10 hours
[4] = relative to ET-22 viable bacteria and heat-inactivated bacteria

Compound: O=C(O)C(O)Cc1ccccc1 (stereo not drawn) [2-hydroxy-3-phenylpropionic acid]
- number of flavor-active acid compounds ([1]; among 71 aroma-active VOCs, 100 µg/ml): significantly decreases
- number of flavor-active ester compounds ([1]; among 71 aroma-active VOCs, pure components 100 µg/ml, others from 1.0×10^9 CFU/ml): significantly decreases
- number of alkane compounds (VOCs) ([1]; pure components 100 µg/ml, peptidoglycan from 1.0×10^9 CFU/ml, 10 hours): significantly decreases
- hexanoic acid concentration [2, 3]: significantly decrease
- indole concentration [2, 3]: significantly decrease
- propanoic acid concentration [2, 3]: significantly decrease
- intervention effect on hexanoic acid [2, 4]: better
- intervention effect on indole [2, 4]: better
- intervention effect on propanoic acid [2, 4]: better
